5 compounds from ChEMBL document CHEMBL1649218, “New treatment option for second-stage African sleeping sickness: in vitro and in vivo efficacy of aza analogs of DB289” (Antimicrob Agents Chemother, 2009) can be followed below.

Converted amounts (≈) assume the structure as drawn. The source made the active and inactive calls. No cut-off for these calls is given here. Where only a bound is given, the exact number is not on record here.

Series [1] concerns Trypanosoma brucei rhodesiense. Kind of series: Antitrypanosomal activity against wild-type Trypanosoma brucei rhodesiense STIB900 infected in NMRI mouse assessed as survival of mouse at 50 mg/kg, po for 4 days. The series is classed as functional.
Series [2] concerns Trypanosoma brucei rhodesiense. Kind of series: Antitrypanosomal activity against wild-type Trypanosoma brucei rhodesiense STIB900 infected in NMRI mouse assessed as cure from infection at 15 mg/kg, po for 4 days. The series is classed as functional, organism-based. Further details: dose 15 mg/kg.
Series [3] has as its system Trypanosoma brucei rhodesiense. Kind of series: Antitrypanosomal activity against wild-type Trypanosoma brucei rhodesiense STIB900 infected in NMRI mouse assessed as survival of mouse at 15 mg/kg, po for 4 days. The series is classed as functional.
The subject of series [4] is Trypanosoma brucei rhodesiense. Kind of series: Antitrypanosomal activity against wild-type Trypanosoma brucei rhodesiense STIB900 infected in NMRI mouse assessed as cure from infection at 75 mg/kg, po for 4 days. The series is classed as functional, organism-based. Also on record: dose 75 mg/kg.
Series [5] concerns Trypanosoma brucei rhodesiense. Kind of series: Antitrypanosomal activity against wild-type Trypanosoma brucei rhodesiense STIB900 infected in NMRI mouse assessed as survival of mouse at 75 mg/kg, po for 4 days. The series is classed as functional.
The subject of series [6] is Trypanosoma brucei rhodesiense. Kind of series: Antitrypanosomal activity against wild-type Trypanosoma brucei rhodesiense STIB900 infected in NMRI mouse assessed as cure from infection at 50 mg/kg, po for 4 days. The series is classed as functional, organism-based. Further details: dose 50 mg/kg.
In series [7] the test system is Trypanosoma brucei rhodesiense. Kind of series: Antitrypanosomal activity against wild-type Trypanosoma brucei rhodesiense STIB900 infected in NMRI mouse assessed as survival of mouse at 25 mg/kg, po for 4 days. The series is classed as functional.
Series [8] has as its system Trypanosoma brucei rhodesiense. Kind of series: Antitrypanosomal activity against wild-type Trypanosoma brucei rhodesiense STIB900 infected in NMRI mouse assessed as survival of mouse at 5 mg/kg, po for 4 days. The series is classed as functional.
For series [9], the system named is Trypanosoma brucei brucei. Kind of series: Antitrypanosomal activity against Trypanosoma brucei brucei GVR35 infected in NMRI mouse CNS model assessed as cure from infection at 100 mg/kg, po for 5 days. The series is classed as functional, organism-based. Further details: dose 100 mg/kg.
Series [10] relates to Trypanosoma brucei brucei. Kind of series: Antitrypanosomal activity against Trypanosoma brucei brucei GVR35 infected in NMRI mouse CNS model assessed as cure from infection at 25 mg/kg, po for 5 days. The series is classed as functional, organism-based. Also on record: dose 25 mg/kg.
The subject of series [11] is Trypanosoma brucei brucei. Kind of series: Antitrypanosomal activity against Trypanosoma brucei brucei GVR35 infected in NMRI mouse CNS model assessed as cure from infection at 100 mg/kg, po for 10 days. The series is classed as functional, organism-based. Further details: dose 100 mg/kg.
In series [12] the test system is Trypanosoma brucei brucei. Kind of series: Antitrypanosomal activity against Trypanosoma brucei brucei GVR35 infected in NMRI mouse CNS model assessed as cure from infection at 10 mg/kg, po for 10 days. The series is classed as functional, organism-based. Also on record: dose 10 mg/kg.
The subject of series [13] is Trypanosoma brucei brucei. Kind of series: Antitrypanosomal activity against Trypanosoma brucei brucei GVR35 infected in NMRI mouse CNS model assessed as survival of mouse at 100 mg/kg, po for 5 days. The series is classed as functional.
The subject of series [14] is Trypanosoma brucei brucei. Kind of series: Antitrypanosomal activity against Trypanosoma brucei brucei GVR35 infected in NMRI mouse CNS model assessed as survival of mouse at 25 mg/kg, po for 5 days. The series is classed as functional.
Series [15] has as its system Trypanosoma brucei brucei. Kind of series: Antitrypanosomal activity against Trypanosoma brucei brucei GVR35 infected in NMRI mouse CNS model assessed as survival of mouse at 100 mg/kg, po for 10 days. The series is classed as functional.
Series [16] concerns Trypanosoma brucei brucei. Kind of series: Antitrypanosomal activity against Trypanosoma brucei brucei GVR35 infected in NMRI mouse CNS model assessed as survival of mouse at 50mg/kg, po for 10 days. The series is classed as functional.
The subject of series [17] is Trypanosoma brucei brucei. Kind of series: Antitrypanosomal activity against Trypanosoma brucei brucei GVR35 infected in NMRI mouse CNS model assessed as survival of mouse at 25 mg/kg, po for 10 days. The series is classed as functional.
Series [18] has as its system Trypanosoma brucei brucei. Kind of series: Antitrypanosomal activity against Trypanosoma brucei brucei GVR35 infected in NMRI mouse CNS model assessed as survival of mouse at 10 mg/kg, po for 10 days. The series is classed as functional.
Series [19] concerns Trypanosoma brucei rhodesiense. Kind of series: Antitrypanosomal activity against wild-type Trypanosoma brucei rhodesiense STIB900 by Alamar blue assay. The series is classed as functional, organism-based. A general note: Alamar Blue is a resazurin reagent that responds to reducing activity.
In series [20] the test system is Trypanosoma brucei rhodesiense. Kind of series: Antitrypanosomal activity against pentamidine-resistant Trypanosoma brucei rhodesiense STIB900 by Alamar blue assay. The series is classed as functional, organism-based.
The test system of series [21] is Trypanosoma brucei rhodesiense. Kind of series: Antitrypanosomal activity against melasoprol-resistant Trypanosoma brucei rhodesiense STIB900 by Alamar blue assay. The series is classed as functional, organism-based.
Series [22] concerns Trypanosoma brucei gambiense. Kind of series: Antitrypanosomal activity against Trypanosoma brucei gambiense K03048 by Alamar blue assay. The series is classed as functional, organism-based.
Series [23] relates to Trypanosoma brucei gambiense. Kind of series: Antitrypanosomal activity against Trypanosoma brucei gambiense ITMAP141267 by Alamar blue assay. The series is classed as functional, organism-based.
Series [24] relates to Trypanosoma brucei gambiense. Kind of series: Antitrypanosomal activity against Trypanosoma brucei gambiense STIB930 by Alamar blue assay. The series is classed as functional, organism-based.
For series [25], the system named is Trypanosoma brucei brucei. Kind of series: Antitrypanosomal activity against Trypanosoma brucei brucei BS221 by Alamar blue assay. The series is classed as functional, organism-based.
Series [26] relates to Trypanosoma brucei brucei. Kind of series: Antitrypanosomal activity against Trypanosoma brucei brucei AT1KO by Alamar blue assay. The series is classed as functional, organism-based.
Series [27] concerns Trypanosoma brucei rhodesiense. Kind of series: Ratio of IC50 for pentamidine-resistant Trypanosoma brucei rhodesiense STIB900 to IC50 for wild-type Trypanosoma brucei rhodesiense STIB900. The series is classed as functional.
The test system of series [28] is Trypanosoma brucei rhodesiense. Kind of series: Ratio of IC50 for melasoprol-resistant Trypanosoma brucei rhodesiense STIB900 to IC50 for wild-type Trypanosoma brucei rhodesiense […]. The series is classed as functional.
Series [29] is described as follows: Ratio of IC50 for Trypanosoma brucei gambiense K03048 to IC50 for wild-type Trypanosoma brucei rhodesiense STIB900. The series is classed as functional.
Series [30] is described as follows: Ratio of IC50 for Trypanosoma brucei gambiense ITMAP141267 to IC50 for wild-type Trypanosoma brucei rhodesiense […]. The series is classed as functional.
The nature of series [31]: Ratio of IC50 for Trypanosoma brucei gambiense STIB930 to IC50 for wild-type Trypanosoma brucei rhodesiense […]. The series is classed as functional.
The test system of series [32] is Trypanosoma brucei brucei. Kind of series: Ratio of IC50 for Trypanosoma brucei brucei AT1KO to IC50 for Trypanosoma brucei brucei BS221. The series is classed as functional.
In series [33] the test system is Trypanosoma brucei gambiense. Kind of series: Ratio of IC50 for Trypanosoma brucei gambiense K03048 to IC50 for Trypanosoma brucei gambiense STIB930. The series is classed as functional.
For series [34], the system named is Trypanosoma brucei rhodesiense. Kind of series: Antitrypanosomal activity against wild-type Trypanosoma brucei rhodesiense STIB900 infected in NMRI mouse assessed as survival of mouse at 20 mg/kg, ip for 4 days. The series is classed as functional. Particulars: route intraperitoneal.
The test system of series [35] is Trypanosoma brucei rhodesiense. Kind of series: Antitrypanosomal activity against wild-type Trypanosoma brucei rhodesiense STIB900 infected in NMRI mouse assessed as survival of mouse at 5 mg/kg, ip for 4 days. The series is classed as functional. Particulars: route intraperitoneal.
In series [36] the test system is Trypanosoma brucei brucei. Kind of series: Antitrypanosomal activity against Trypanosoma brucei brucei GVR35 infected in NMRI mouse CNS model assessed as cure from infection at 20 mg/kg, ip for 5 days. The series is classed as functional, organism-based. Also on record: dose 20 mg/kg.
In series [37] the test system is Trypanosoma brucei brucei. Kind of series: Antitrypanosomal activity against Trypanosoma brucei brucei GVR35 infected in NMRI mouse CNS model assessed as survival of mouse at 20 mg/kg, ip for 5 days. The series is classed as functional. As to conditions: route intraperitoneal.
Series [38] relates to Trypanosoma brucei brucei. Kind of series: Antitrypanosomal activity against Trypanosoma brucei brucei GVR35 infected in NMRI mouse CNS model assessed as survival of mouse at 10 mg/kg, ip for 10 days. The series is classed as functional. As to conditions: route intraperitoneal.
The next series has as its system Mus musculus. Kind of series: Toxicity in NMRI mouse CNS model at 25 mg/kg, ip for 10 days. The series is classed as organism-based. Also on record: dose 25 mg/kg, route intraperitoneal. Particulars: in vivo, 240 h.
The subject of series [39] is Trypanosoma brucei rhodesiense. Kind of series: Antitrypanosomal activity against wild-type Trypanosoma brucei rhodesiense STIB900 infected in NMRI mouse assessed as cure from infection at 25 mg/kg, po for 4 days. The series is classed as functional, organism-based. Also on record: dose 25 mg/kg.
Series [40] has as its system Trypanosoma brucei rhodesiense. Kind of series: Antitrypanosomal activity against wild-type Trypanosoma brucei rhodesiense STIB900 infected in NMRI mouse assessed as cure from infection at 2.5 mg/kg, po for 4 days. The series is classed as functional, organism-based. Further details: dose 2.5 mg/kg.
Series [41] relates to Trypanosoma brucei rhodesiense. Kind of series: Antitrypanosomal activity against wild-type Trypanosoma brucei rhodesiense STIB900 infected in NMRI mouse assessed as survival of mouse at 2.5 mg/kg, po for 4 days. The series is classed as functional.
The test system of series [42] is Trypanosoma brucei brucei. Kind of series: Antitrypanosomal activity against Trypanosoma brucei brucei GVR35 infected in NMRI mouse CNS model assessed as survival of mouse at 50 mg/kg, po for 5 days. The series is classed as functional.
Series [43] deals with Trypanosoma brucei brucei. Kind of series: Antitrypanosomal activity against Trypanosoma brucei brucei GVR35 infected in NMRI mouse CNS model assessed as survival of mouse at 75 mg/kg, po for 5 days. The series is classed as functional.

As for `CO/N=C(/N)c1ccc(-c2ccc(-c3ccc(/C(N)=N/O)cc3)o2)cc1`, the MSD in series [1] was >56 days; in [3], 30.25 days. For the same compound, in [2], the outcome was inactive.

As to `N/C(=N\O)c1ccc(-c2ccc(-c3ccc(/C(N)=N\O)cn3)o2)nc1`, the outcome in series [4] was inactive. Also, in [5], the MSD came to 18 days.

In the case of `CO/N=C(\N)c1ccc(-c2ccc(-c3ccc(/C(N)=N/OC)cn3)o2)nc1`, the result in series [6], in [9] and in series [11] was Active. Also, the MSD in [1] is >60 days; in series [7], >42 days; in [8], >40.25 days; in series [13], >180 days; in series [14], >95.8 days; in [15], >180 days. Moreover, the MSD in [16] was >153.4 days; in series [17], >132.4 days; in series [18], 70 days. In addition, the result in [10] and in series [12] was inactive.

With `N=C(N)c1ccc(-c2ccc(-c3ccc(C(=N)N)cc3)o2)cc1` [FURAMIDINE], the IC50 in [19] was 1 ng/mL (≈ 0.00329 µM); in series [20], 14.3 ng/mL (≈ 0.047 µM); in series [21], 19 ng/mL (≈ 0.0624 µM); in [22] it was 4.2 ng/mL (≈ 0.0138 µM); in series [23] it was 3.1 ng/mL (≈ 0.0102 µM); in series [24] it was 5.1 ng/mL (≈ 0.0168 µM). The IC50 in series [25] is 1.2 ng/mL (≈ 0.00394 µM); in series [26], 15.8 ng/mL (≈ 0.0519 µM). Besides, the “Ratio IC50” value stood at 14.7 in [27]; 19.5 in series [28]; 4.3 in series [29]; 3.2 in series [30]; 5.3 in series [31]; 13.1 in series [32]. For the same compound, in [33], the “Ratio IC50” value was determined as 14. In addition, the MSD in [34] is >57.75 days; in series [35], >46 days; in [37], >132.3 days; in [38], >112 days. Further, in series [36], the result was inactive. Further, the Activity entry in the series with Mus musculus is “Toxic”.

As to `CO/N=C(\N)c1ccc(-c2ccc(-c3ccc(/C(N)=N/OC)cn3)o2)cc1`, the outcome in [39] and in series [9] was Active. In addition, the outcome in series [40] and in [12] was inactive. Further, the MSD in [7] was >60 days; in series [8] it was >50.25 days; in [41], 19.5 days; in [13], >180 days; in series [42] it was >176.6 days; in series [14], 117.6 days. Besides, the MSD is >180 days in [16], >149.6 days in series [17], 75.25 days in series [18] and >172 days in series [43].

As usually defined, the IC50 is the concentration that inhibits the measured activity by half. High values mean a need for much substance, low ones inhibition by little substance.
